Measured values as given in the NIST ThermoML archive (doi:10.1016/j.fluid.2017.11.013).
“And” between values parts separate entries of the source, which are not always exact repeats. Identical values can stand only once.

Details: Coaxial cylinder method

C=C [ethene]
Details	thermal conductivity
283.96 K, 5740 kPa, Fluid (supercritical or subcritical phases)	0.06796 W/m/K
283.96 K, 5920 kPa, Fluid (supercritical or subcritical phases)	0.06854 W/m/K
283.96 K, 6140 kPa, Fluid (supercritical or subcritical phases)	0.06972 W/m/K
283.96 K, 6310 kPa, Fluid (supercritical or subcritical phases)	0.0703 W/m/K
283.96 K, 6530 kPa, Fluid (supercritical or subcritical phases)	0.0709 W/m/K
283.96 K, 6710 kPa, Fluid (supercritical or subcritical phases)	0.07122 W/m/K
283.96 K, 7100 kPa, Fluid (supercritical or subcritical phases)	0.07249 W/m/K
284.89 K, 101 kPa, Gas	0.01877 W/m/K
284.89 K, 680 kPa, Fluid (supercritical or subcritical phases)	0.02012 W/m/K
284.89 K, 1170 kPa, Fluid (supercritical or subcritical phases)	0.02064 W/m/K
284.89 K, 2430 kPa, Fluid (supercritical or subcritical phases)	0.02241 W/m/K
284.89 K, 3520 kPa, Fluid (supercritical or subcritical phases)	0.02591 W/m/K
284.89 K, 4330 kPa, Fluid (supercritical or subcritical phases)	0.03024 W/m/K
284.89 K, 4740 kPa, Fluid (supercritical or subcritical phases)	0.03518 W/m/K
284.89 K, 4900 kPa, Fluid (supercritical or subcritical phases)	0.03781 W/m/K
284.89 K, 5030 kPa, Fluid (supercritical or subcritical phases)	0.04219 W/m/K
284.89 K, 5100 kPa, Fluid (supercritical or subcritical phases)	0.04581 W/m/K
284.89 K, 5160 kPa, Fluid (supercritical or subcritical phases)	0.05257 W/m/K
284.89 K, 5200 kPa, Fluid (supercritical or subcritical phases)	0.05764 W/m/K
284.89 K, 5240 kPa, Fluid (supercritical or subcritical phases)	0.0653 W/m/K
284.89 K, 5260 kPa, Fluid (supercritical or subcritical phases)	0.06948 W/m/K
284.89 K, 5290 kPa, Fluid (supercritical or subcritical phases)	0.08267 W/m/K
284.89 K, 5310 kPa, Fluid (supercritical or subcritical phases)	0.09324 W/m/K
284.89 K, 5320 kPa, Fluid (supercritical or subcritical phases)	0.09654 W/m/K
284.89 K, 5340 kPa, Fluid (supercritical or subcritical phases)	0.09916 W/m/K
284.89 K, 5360 kPa, Fluid (supercritical or subcritical phases)	0.08875 W/m/K
284.89 K, 5380 kPa, Fluid (supercritical or subcritical phases)	0.08399 W/m/K
284.89 K, 5400 kPa, Fluid (supercritical or subcritical phases)	0.07691 W/m/K
284.89 K, 5430 kPa, Fluid (supercritical or subcritical phases)	0.07429 W/m/K
284.89 K, 5460 kPa, Fluid (supercritical or subcritical phases)	0.07184 W/m/K
284.89 K, 5490 kPa, Fluid (supercritical or subcritical phases)	0.06955 W/m/K
284.89 K, 5530 kPa, Fluid (supercritical or subcritical phases)	0.06954 W/m/K
284.89 K, 5600 kPa, Fluid (supercritical or subcritical phases)	0.06952 W/m/K
284.89 K, 5610 kPa, Fluid (supercritical or subcritical phases)	0.06954 W/m/K
284.89 K, 5670 kPa, Fluid (supercritical or subcritical phases)	0.06864 W/m/K
284.89 K, 5780 kPa, Fluid (supercritical or subcritical phases)	0.06822 W/m/K
284.89 K, 5890 kPa, Fluid (supercritical or subcritical phases)	0.06866 W/m/K
284.89 K, 6170 kPa, Fluid (supercritical or subcritical phases)	0.06954 W/m/K
284.89 K, 6530 kPa, Fluid (supercritical or subcritical phases)	0.07045 W/m/K
284.89 K, 7030 kPa, Fluid (supercritical or subcritical phases)	0.07139 W/m/K
284.89 K, 7500 kPa, Fluid (supercritical or subcritical phases)	0.07332 W/m/K
284.89 K, 8190 kPa, Fluid (supercritical or subcritical phases)	0.07593 W/m/K
284.89 K, 8580 kPa, Fluid (supercritical or subcritical phases)	0.07756 W/m/K
284.89 K, 8590 kPa, Fluid (supercritical or subcritical phases)	0.07756 W/m/K
284.89 K, 9070 kPa, Fluid (supercritical or subcritical phases)	0.07866 W/m/K
284.89 K, 9530 kPa, Fluid (supercritical or subcritical phases)	0.07924 W/m/K
284.89 K, 9990 kPa, Fluid (supercritical or subcritical phases)	0.08043 W/m/K
284.89 K, 10010 kPa, Fluid (supercritical or subcritical phases)	0.08041 W/m/K
285.04 K, 5080 kPa, Fluid (supercritical or subcritical phases)	0.04457 W/m/K
285.04 K, 5100 kPa, Fluid (supercritical or subcritical phases)	0.04514 W/m/K
285.04 K, 5210 kPa, Fluid (supercritical or subcritical phases)	0.05584 W/m/K
285.04 K, 5270 kPa, Fluid (supercritical or subcritical phases)	0.06826 W/m/K
285.04 K, 5300 kPa, Fluid (supercritical or subcritical phases)	0.07918 W/m/K
285.04 K, 5340 kPa, Fluid (supercritical or subcritical phases)	0.09492 W/m/K
285.04 K, 5350 kPa, Fluid (supercritical or subcritical phases)	0.09641 W/m/K
285.04 K, 5370 kPa, Fluid (supercritical or subcritical phases)	0.09081 W/m/K
285.04 K, 5420 kPa, Fluid (supercritical or subcritical phases)	0.07925 W/m/K
285.04 K, 5490 kPa, Fluid (supercritical or subcritical phases)	0.07233 W/m/K
285.04 K, 5640 kPa, Fluid (supercritical or subcritical phases)	0.06952 W/m/K
285.04 K, 6040 kPa, Fluid (supercritical or subcritical phases)	0.06871 W/m/K and 0.0687 W/m/K
285.04 K, 6050 kPa, Fluid (supercritical or subcritical phases)	0.06846 W/m/K
285.04 K, 6140 kPa, Fluid (supercritical or subcritical phases)	0.06843 W/m/K
285.04 K, 6150 kPa, Fluid (supercritical or subcritical phases)	0.06861 W/m/K
